This is an account of results in ChEMBL document CHEMBL4382217 (Bioorg Med Chem, 2018).

Series [1] is described as follows: (§1) Antiproliferative activity against human A431 cells harboring WT EGFR after 72 hrs by MTS assay. It counts as cell-based, A-431. The following applies: human, A431 cells harboring WT EGFR.
Series [2] in a line: Selectivity index, ratio of GI50 for human A431 cells harboring WT EGFR to GI50 for human NCI-H1975 cells harboring EGFR T790M/L858R double mutant.
In series [3] the test system is NCI-H1975. Kind of series: Antiproliferative activity against human NCI-H1975 cells harboring EGFR T790M/L858R double mutant after 72 hrs by MTS assay. It counts as functional, cell-based. Particulars: Homo sapiens, NCI-H1975, 72 h.
The subject of series [4] is PC-9. The series can be described thus: Antiproliferative activity against human PC9 cells harboring EGFR mutant after 72 hrs by MTS assay. The following applies: PC-9, 72 h. It counts as functional, cell-based.
Series [5] can be described thus: Drug level in human liver microsomes treated with N-(2-((2-(Dimethylamino)ethyl)(methyl)amino)-4-methoxy-5-((4-(1-methyl-1H-pyrrolo[3,2-b]pyridin-3-yl)pyrimidin-2-yl)amino)phenyl)acrylamide by LC-MS/MS analysis. Format: ADME, Microsome.
The target of series [6] is Epidermal growth factor receptor (Homo sapiens, UniProt P00533). Kind of series: Inhibition of recombinant human N-terminal GST-tagged EGFR (696-end residues) expressed in baculovirus expression system using Srctide as substrate by fluorescence assay.
Sequence of Epidermal growth factor receptor (Homo sapiens, UniProt P00533) (P00533 whole entry): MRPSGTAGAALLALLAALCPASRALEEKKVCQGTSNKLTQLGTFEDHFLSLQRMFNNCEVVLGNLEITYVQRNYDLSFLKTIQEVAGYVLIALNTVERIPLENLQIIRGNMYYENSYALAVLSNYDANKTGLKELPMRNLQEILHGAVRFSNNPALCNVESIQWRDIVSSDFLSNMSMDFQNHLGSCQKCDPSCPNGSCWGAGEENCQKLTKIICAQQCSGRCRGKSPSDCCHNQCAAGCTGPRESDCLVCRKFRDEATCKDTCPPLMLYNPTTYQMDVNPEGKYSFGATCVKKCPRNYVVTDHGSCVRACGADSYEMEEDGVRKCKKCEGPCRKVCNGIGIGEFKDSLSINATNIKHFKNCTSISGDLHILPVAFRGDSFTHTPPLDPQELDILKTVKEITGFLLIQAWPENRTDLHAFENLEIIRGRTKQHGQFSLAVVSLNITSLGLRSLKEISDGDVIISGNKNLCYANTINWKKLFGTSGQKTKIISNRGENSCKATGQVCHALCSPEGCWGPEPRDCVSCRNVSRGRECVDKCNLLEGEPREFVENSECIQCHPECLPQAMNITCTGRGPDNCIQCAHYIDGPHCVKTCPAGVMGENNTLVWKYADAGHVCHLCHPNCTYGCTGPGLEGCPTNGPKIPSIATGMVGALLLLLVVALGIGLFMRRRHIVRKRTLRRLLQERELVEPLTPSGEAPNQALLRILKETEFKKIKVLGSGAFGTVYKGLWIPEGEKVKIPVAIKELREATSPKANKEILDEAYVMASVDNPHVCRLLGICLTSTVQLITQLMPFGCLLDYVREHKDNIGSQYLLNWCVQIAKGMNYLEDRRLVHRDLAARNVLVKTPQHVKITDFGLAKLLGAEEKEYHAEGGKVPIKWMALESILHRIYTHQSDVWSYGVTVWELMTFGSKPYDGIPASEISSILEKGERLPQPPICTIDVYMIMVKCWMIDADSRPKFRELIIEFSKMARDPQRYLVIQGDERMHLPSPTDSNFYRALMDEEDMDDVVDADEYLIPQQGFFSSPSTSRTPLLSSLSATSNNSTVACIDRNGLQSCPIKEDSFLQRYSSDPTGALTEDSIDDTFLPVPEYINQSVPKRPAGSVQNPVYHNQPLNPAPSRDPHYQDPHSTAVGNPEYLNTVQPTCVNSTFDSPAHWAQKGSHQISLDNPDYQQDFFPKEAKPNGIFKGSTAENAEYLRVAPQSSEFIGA
Series [7] has as its system HCC827. Kind of series: Antiproliferative activity against human HCC827 cells harboring EGFR mutant after 72 hrs by MTS assay. Format: functional, cell-based. The following applies: HCC827, 72 h.
Series [8] has as its system Calu-6. The series can be described thus: Antiproliferative activity against human Calu6 cells harboring WT EGFR after 72 hrs by MTS assay. Format: cell-based. The following applies: Calu-6, 72 h.
In series [9] the test system is A-431. Described as §1. Format: cell-based. The following applies: Homo sapiens, A-431, 72 h.
For series [10], the target named is Epidermal growth factor receptor (Homo sapiens, UniProt P00533, L858R). The series can be described thus: Inhibition of recombinant human GST-tagged EGFR L858R mutant expressed in baculovirus expression system by fluorescence assay.
Sequence of Epidermal growth factor receptor (Homo sapiens, UniProt P00533, L858R) (P00533 25-1210 L858R limits assumed): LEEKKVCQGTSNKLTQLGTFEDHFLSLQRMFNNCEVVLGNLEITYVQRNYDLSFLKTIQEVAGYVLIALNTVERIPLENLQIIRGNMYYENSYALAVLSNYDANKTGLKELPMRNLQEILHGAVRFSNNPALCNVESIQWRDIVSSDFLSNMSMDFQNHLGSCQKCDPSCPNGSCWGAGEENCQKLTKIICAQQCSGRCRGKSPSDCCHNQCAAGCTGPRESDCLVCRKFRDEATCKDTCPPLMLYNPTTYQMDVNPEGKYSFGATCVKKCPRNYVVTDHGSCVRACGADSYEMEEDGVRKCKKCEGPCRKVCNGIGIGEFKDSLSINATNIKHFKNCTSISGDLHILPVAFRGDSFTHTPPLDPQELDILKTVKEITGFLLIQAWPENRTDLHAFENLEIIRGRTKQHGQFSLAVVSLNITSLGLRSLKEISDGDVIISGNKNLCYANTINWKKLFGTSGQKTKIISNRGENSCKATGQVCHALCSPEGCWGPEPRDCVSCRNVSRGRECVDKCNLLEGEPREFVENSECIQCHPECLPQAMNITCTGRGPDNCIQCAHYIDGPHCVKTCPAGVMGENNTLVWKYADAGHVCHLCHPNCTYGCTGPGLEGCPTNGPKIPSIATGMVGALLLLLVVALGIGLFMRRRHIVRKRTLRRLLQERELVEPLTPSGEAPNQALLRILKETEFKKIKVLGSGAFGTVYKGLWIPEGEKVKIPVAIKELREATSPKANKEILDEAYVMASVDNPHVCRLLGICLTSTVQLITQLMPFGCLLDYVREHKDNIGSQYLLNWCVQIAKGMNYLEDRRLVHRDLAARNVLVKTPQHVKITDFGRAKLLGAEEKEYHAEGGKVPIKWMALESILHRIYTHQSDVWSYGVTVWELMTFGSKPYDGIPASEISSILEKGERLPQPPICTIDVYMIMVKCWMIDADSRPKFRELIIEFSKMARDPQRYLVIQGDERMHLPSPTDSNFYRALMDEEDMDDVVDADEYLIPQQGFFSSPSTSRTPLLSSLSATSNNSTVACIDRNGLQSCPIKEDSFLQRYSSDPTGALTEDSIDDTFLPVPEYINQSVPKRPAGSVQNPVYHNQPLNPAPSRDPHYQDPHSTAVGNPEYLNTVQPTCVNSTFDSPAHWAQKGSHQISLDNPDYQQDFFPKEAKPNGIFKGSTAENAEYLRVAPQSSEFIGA
Series [11] deals with Epidermal growth factor receptor (Homo sapiens, UniProt P00533, L858R/T790M). Kind of series: Inhibition of recombinant human N-terminal GST-tagged EGFR T790M/L858R double mutant (696-end residues) by fluorescence assay.
Sequence of Epidermal growth factor receptor (Homo sapiens, UniProt P00533, L858R/T790M) (P00533 25-1210 T790M/L858R limits assumed): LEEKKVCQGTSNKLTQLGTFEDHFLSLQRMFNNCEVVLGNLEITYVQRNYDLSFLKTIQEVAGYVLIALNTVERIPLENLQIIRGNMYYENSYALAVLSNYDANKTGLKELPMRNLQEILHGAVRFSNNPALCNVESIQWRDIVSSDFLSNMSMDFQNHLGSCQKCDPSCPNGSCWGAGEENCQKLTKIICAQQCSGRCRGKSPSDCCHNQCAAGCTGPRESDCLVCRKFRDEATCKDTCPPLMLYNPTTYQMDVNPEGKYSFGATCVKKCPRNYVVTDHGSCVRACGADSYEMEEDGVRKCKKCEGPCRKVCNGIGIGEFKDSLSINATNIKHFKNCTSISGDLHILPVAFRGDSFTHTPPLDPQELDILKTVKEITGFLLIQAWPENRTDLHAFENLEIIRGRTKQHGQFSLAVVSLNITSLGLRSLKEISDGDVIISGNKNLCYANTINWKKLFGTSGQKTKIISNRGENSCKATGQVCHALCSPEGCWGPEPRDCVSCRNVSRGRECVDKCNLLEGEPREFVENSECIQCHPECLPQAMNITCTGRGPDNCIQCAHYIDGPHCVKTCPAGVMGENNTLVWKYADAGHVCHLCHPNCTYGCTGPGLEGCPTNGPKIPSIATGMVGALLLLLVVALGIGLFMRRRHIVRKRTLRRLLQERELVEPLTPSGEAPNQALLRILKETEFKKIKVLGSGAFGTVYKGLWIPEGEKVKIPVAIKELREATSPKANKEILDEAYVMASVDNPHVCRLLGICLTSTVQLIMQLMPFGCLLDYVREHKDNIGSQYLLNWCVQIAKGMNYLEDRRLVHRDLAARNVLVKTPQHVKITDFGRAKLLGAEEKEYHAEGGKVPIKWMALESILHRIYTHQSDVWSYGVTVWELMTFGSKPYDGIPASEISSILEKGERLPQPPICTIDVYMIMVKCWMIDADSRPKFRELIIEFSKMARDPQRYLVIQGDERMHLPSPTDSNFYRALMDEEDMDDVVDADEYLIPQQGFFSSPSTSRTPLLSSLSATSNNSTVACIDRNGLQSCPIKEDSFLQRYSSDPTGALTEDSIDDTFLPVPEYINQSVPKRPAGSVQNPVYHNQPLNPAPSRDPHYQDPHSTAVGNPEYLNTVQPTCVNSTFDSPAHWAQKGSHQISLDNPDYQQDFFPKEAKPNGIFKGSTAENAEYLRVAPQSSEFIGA
The species named for series [12] is Homo sapiens. Kind of series: Selectivity index, ratio of IC50 for recombinant human N-terminal GST-tagged EGFR (696-end residues) expressed in baculovirus expression system to IC50 for recombinant human N-terminal GST-tagged EGFR T790M/L858R double mutant (696-end residues).
Series [13] relates to Calu-3. Kind of series: Antiproliferative activity against human Calu3 cells harboring WT EGFR after 72 hrs by MTS assay. It counts as cell-based. The following applies: Calu-3, 72 h.

In the case of `C=CC(=O)Nc1cc(Nc2nccc(-c3noc4ccccc34)n2)c(OC)cc1N1CCC[C@H]1CN(C)C`, the GI50 at 72 h in series [1] is > 10000 nM. In addition, in [2], the RatioGI50 was >75.1. In addition, it took 844 nM to inhibit growth in series [3] by half (GI50).
`C=CC(=O)Nc1cc(Nc2nccc(-c3cn(C)c4cccnc34)n2)c(OC(F)F)cc1N1CCN(C)CC1` came in with a GI50 at 72 h in series [1] of 1440 nM. Also, the RatioGI50 in [2] is 8.7. For the same compound, in [3], halving of growth (GI50) required 166 nM.
Consider `C=CC(=O)Nc1cc(Nc2nccc(-c3noc4ccccc34)n2)c(OC)cc1N(C)CCN(C)C`, for which the 50% growth inhibitory concentration (GI50) at 72 h in series [1] came to 110 nM. In addition, in [2], the RatioGI50 is given as 15.1. The compound also came in with a GI50 in series [3] of 7.3 nM.
For the compound `C=CC(=O)Nc1cc(Nc2nccc(-c3cn(C)c4cccnc34)n2)c(OC(F)F)cc1N1CCC[C@H]1CN(C)C`, it took 724 nM to inhibit growth in series [1] by half (GI50 at 72 h). For the same compound, in series [2], the RatioGI50 worked out at 3.9. In series [3], this compound displayed a 50% growth inhibitory concentration (GI50) of 184 nM.
The corresponding values for `C=CC(=O)Nc1cc(Nc2nccc(-c3cn(C)c4cccnc34)n2)c(OC)cc1N1CCN(C)CC1` are 1560 nM, 8.9 and 175 nM.
Regarding `C=CC(=O)Nc1cc(Nc2nccc(-c3nn(C)c4ccsc34)n2)c(OC(F)F)cc1N1CCN(C)CC1`, the GI50 at 72 h in [1] was determined as 1130 nM. In addition, the RatioGI50 in [2] is listed as 3.8. The same compound had a GI50 in [3] of 296 nM.
As to `C=CC(=O)Nc1cc(Nc2nccc(-c3nn(C)c4ccsc34)n2)c(OC)cc1N(C)CCN(C)C`, in series [1], the GI50 at 72 h was found to be 209 nM. In addition, in series [2], the RatioGI50 is on record as 19.5. In [3], this compound came in with a GI50 of 10.7 nM.
The corresponding values for `C=CC(=O)Nc1cc(Nc2nccc(-c3noc4ccccc34)n2)c(OC(F)F)cc1N1CCN(C)CC1` are 1720 nM, 35.1 and 49 nM.
For `C=CC(=O)Nc1cc(Nc2nccc(-c3noc4ccccc34)n2)c(OC)cc1N1CCN(C)CC1`, in [1], halving of growth (GI50 at 72 h) required 728 nM. In [2], the RatioGI50 was 4.3. Halving of growth in series [3] (GI50) required 168 nM.
For the compound `C=CC(=O)Nc1cc(Nc2nccc(-c3noc4ccccc34)n2)c(OC(F)F)cc1N(C)CCN(C)C`, the concentration for 50% growth inhibition (GI50) at 72 h in [1] came to 89.1 nM. The RatioGI50 in series [2] is 22.3. Further, halving of growth in series [3] (GI50) required 4 nM.
The compound `C=CC(=O)Nc1cc(Nc2nccc(-c3cn(C)c4cccnc34)n2)c(OC)cc1N1CCC[C@H]1CN(C)C` yielded a GI50 at 72 h in series [1] of 2100 nM. Besides, the RatioGI50 in series [2] amounted to 0.7. Besides, the GI50 in [3] amounted to 2880 nM.
With `C=CC(=O)Nc1cc(Nc2nccc(-c3cn(C)c4cccnc34)n2)c(OC)cc1NCCN(C)C`, the half-maximal inhibitory concentration (IC50) was 740 nM in series [4]; 77000 nM in series [6]; 75 nM in series [7]; > 10000 nM in [8]; 6780 nM in [9]; 12000 nM in [10]. Further, the figures for the IC50 in series [11], in [13] and in [3] were 15000 nM, > 10000 nM and 790 nM, respectively. Further, the Drug metabolism entry in series [5] is “Metabolite_Detected”. For the same compound, the Ratio IC50 in [12] came out at 5.1.
On to `C=CC(=O)Nc1cc(Nc2nccc(-c3noc4ccccc34)n2)c(OC(F)F)cc1N1CCC[C@H]1CN(C)C`, for which the concentration for 50% growth inhibition (GI50) at 72 h in [1] amounted to 1000 nM. Moreover, the RatioGI50 in series [2] amounted to 3.5. In [3], halving of growth (GI50) required 285 nM.
`C=CC(=O)Nc1cc(Nc2nccc(-c3cn(C)c4cccnc34)n2)c(OC)cc1N(C)CCNC`: the IC50 was 330 nM in [4]; 277000 nM in series [6]; 42 nM in [7]; > 10000 nM in series [8]; 3470 nM in series [9]; 12000 nM in series [10]. In addition, the results for the concentration for half-maximal inhibition (IC50) in series [11], in series [13] and in [3] were 6600 nM, > 10000 nM and 270 nM, respectively. The Drug metabolism result in series [5] is reported as “Metabolite_Detected”. Besides, the Ratio IC50 in [12] was determined as 42.
In the case of `C=CC(=O)Nc1cc(Nc2nccc(-c3cn(C)c4cccnc34)n2)c(OC(F)F)cc1N(C)CCN(C)C`, the GI50 at 72 h in series [1] amounted to 296 nM. For the same compound, in series [2], the RatioGI50 was 44.1. This compound also yielded a GI50 in series [3] of 6.7 nM.
In turn, `C=CC(=O)Nc1cc(Nc2nccc(-c3nn(C)c4ccsc34)n2)c(OC(F)F)cc1N(C)CCN(C)C` returned a GI50 at 72 h in series [1] of 85.8 nM. The RatioGI50 in [2] amounted to 13.2. In series [3], this compound registered a GI50 of 6.5 nM.
